Measured values reported in article PMC7251927, “Impact of Acute and Chronic Amyloid-β Peptide Exposure on Gut Microbial Commensals in the Mouse” (Frontiers in Microbiology, 2020).

Assays:
[1] = Gut transition time of orally administered TAMRA-labeled Aβ; type: in vivo, mouse; settings: 10 μg oral; for Gut segment in which TAMRA fluorescence was detected (2 cm sections, 1 = stomach to 12 = rectal): one animal, technical duplicates
Procedure: (§1) Animals were lightly anesthetized with Isoflurane and 10 μg of peptide or solvent (10 mM NH4OH) administered slowly into the oral cavity. Mice were kept in manual fixation up to ingestion of the fluid to prevent aspiration.
(§2) Animals were deeply anesthetized with isoflurane and sacrificed by decapitation. For microbiome determination, feces pellets close to the rectum were taken. For assessing fluorescence after feeding of TAMRA-labeled Aβ, the whole gut was placed in ice cold isotonic sodium chloride to prevent further peristalsis movement. Segments of 2 cm length were then chopped starting from the stomach, the content collected by longitudinal opening and stored on ice until further use.
After oral application of TAMRA-labeled Aβ or NH4OH as control and sacrifice of the animals 2, 4, or 24 h later, chyme samples were diluted with 500 μl ice cold PBS, incubated for 5 min and centrifuged. Fluorescence was measured by using 50 μl of the supernatant in duplicates (Exc 540 nm and Em 580 nm, FLUOstar Optima, BMG Labtech GmbH, Ortenberg, Germany) at intervals of 1 min over a period of 1 h at 37°C with shaking before every measurement. The mean of the values of the measurements between 15 and 45 min was used to calculate the difference between the TAMRA-labeled Aβ-treated animals and solvent-treated control animals.
FIGURE 2 Stability and time-dependent localization of per os administered Aβ peptides in the murine gastrointestinal tract. (A) TAMRA-labeled Aβ peptide was incubated in two different concentrations [high (H): 0.025 μM; low (L): 0.005 μM] with PBS-diluted gastric content of wild type mice for 2 h at 37°C. Solvent of the peptide was used as a negative control (–). Additionally, samples with PBS instead of chyme were incubated as described (buffer). Proteins were separated on PAA gel and transferred to nitrocellulose. […] (B) To assess the passage of orally administered Aβ peptides, wild type or 5xFAD mice were fed with 10 μg of TAMRA-labeled Aβ peptides and sacrificed at indicated time points. TAMRA-dependent fluorescence was determined in the chyme of 2 cm gut sections numbered from 1 (oral end = stomach) to 12 (rectal section). Values are presented as measured difference between the TAMRA-Aβ-treated animals and solvent-treated control animals (one animal per time point, technical duplicates).

[2] = test system: Candida albicans; design: method as in Soscia et al., 2010; settings: single microbial species; ref Soscia et al., 2010; cited from earlier work
[3] = test system: Enterobacteriaceae; assay: Family-specific cultivation, CFU on Petrifilm plates selective for Enterobacteriaceae; type: cell-based, mouse; settings: 2 μM, plates 20 h at 37°C
Procedure: (§3) For assessing toxic effects of Aβ on specific microbial families, freshly collected feces was suspended and incubated with 2 μM peptide solution as described above. Afterward, feces suspensions were diluted with 0.9% sodium chloride solution for plating 1 ml on 3M^TM-Petrifilm plates specific for Enterobacteriaceae and Lactobacillaceae (3M Deutschland GmbH, Neuss, Germany). Plates were incubated for 20 h at 37°C. CFU were counted and normalized to samples from the same donor mouse incubated with scrambled peptide.
(§4) Viability was measured and calculated in percent of scrambled peptide treated samples (n = 13 animals per group,♂ = 6–7, ♀ = 6–7). […] Subsequently, aliquots of further diluted bacteria suspension were plated on Schaedler agar and incubated anaerobically for 48 h at 37°C. Number of colony forming units (CFU) of samples treated with scrambled peptide control were set to 100% (n = 7 animals per group; ♂ = 3, ♀ = 4). […] Datapoints for individual normalized measurements are shown in each graph (*p < 0.05; **p < 0.01).

[4] = test system: Lactobacillaceae; assay: Family-specific cultivation, CFU on Petrifilm plates selective for Lactobacillaceae; type: cell-based, mouse; settings: 2 μM, plates 20 h at 37°C, n = 10–11
Procedure: as §3, §4

[5] = test system: gut microbiome; assay: 16S rDNA sequencing of the gut microbiome after oral peptide application; type: in vivo, mouse; settings: female wild type mice, 10 μg peptide oral once, feces
Procedure: as §1, §2

[6] = test system: Enterococcus faecalis; design: method as in Soscia et al., 2010; settings: single microbial species; ref Soscia et al., 2010; cited from earlier work
[7] = test system: murine fecal microorganisms; assay: Bacterial viability assay (BacTiter Glo) on diluted fecal samples; type: cell-based, mouse; settings: 2 μM peptide, 10 min incubation, luminescence, n = 13 animals
Procedure: Freshly collected fecal pellets were suspended in isotonic sodium chloride solution (0.9%, 100 μl/mg) using a hand-held electric stirrer (Xenox, Fähren, Germany). Aliquots of 50 μl were supplemented with 5 μl of peptide solution in 0.4 mM NH4OH buffered in PBS. After 10 min incubation at room temperature under careful mixing for every 2 min, 20 μl of this suspension were added to 4 ml of thioglycollate bouillon (Becton Dickinson GmbH, Heidelberg, Germany) and kept for overnight at […]. The following day, 1 μl of the diluted fecal suspension was spread on Schaedler agar plates (Becton Dickinson GmbH, Heidelberg, Germany) and incubated for 48 h anaerobically (Anoxomat, Mart Microbiology B.V, Drachten, Netherlands). Lastly, colony forming units (CFU) were counted and normalized to controls from the same donor mouse incubated with scrambled peptide.
After incubation of diluted feces samples with Aβ peptide or scrambled control for plating (see above), additional 1:100 dilutions were prepared and viability measured by using the BacTiter Glo assay as indicated by the vendor (Promega, Mannheim, Germany). Relative luminescence was measured and normalized to controls from the same donor mouse incubated with scrambled peptide.
Viability was measured and calculated in percent of scrambled peptide treated samples (n = 13 animals per group,♂ = 6–7, ♀ = 6–7). […]

TAMRA-labeled Aβ42: TAMRA-labeled Aβ peptide (AnaSpec) used for detecting gut transition of Aβ
Gut segment in which TAMRA fluorescence was detected (2 cm sections, 1 = stomach to 12 = rectal) ([1]; 5xFAD transgenic mouse, 2 h after treatment): 11 | Gut segment in which TAMRA fluorescence was detected (2 cm sections, 1 = stomach to 12 = rectal) ([1]; 5xFAD transgenic mouse, 4 h after treatment): 11 | TAMRA fluorescence signal in chyme of gut segments ([1]; wild type and 5xFAD mice, 24 h after treatment, any sample): No signal could be detected | Gut segment in which TAMRA fluorescence was detected (2 cm sections, 1 = stomach to 12 = rectal) ([1]; wild type mouse, 4 h after treatment): 11

human Aβ1–42 [Aβ42]
Antimicrobial effect on Candida albicans [2]: antimicrobial effect | Enterobacteriaceae CFU vs scrambled peptide control ([3]; fecal material from transgenic 5xFAD mice, n = 10–11, p = 0.09): non-significant reduction | Enterobacteriaceae CFU vs scrambled peptide control ([3]; fecal material from wild type mice, n = 10–11): significantly reduced | Lactobacillaceae CFU vs scrambled peptide control ([4]; fecal material from transgenic 5xFAD mice): no significant effects | Lactobacillaceae CFU vs scrambled peptide control ([4]; fecal material from wild type mice): significantly reduced | Beta diversity, Bray–Curtis dissimilarity (CAP), difference vs scrambled Aβ-fed animals [5]: not significant | Beta diversity, Jaccard distance based ordination (CAP), vs scrambled Aβ-fed animals [5]: significantly differed | Antimicrobial effect on Enterococcus faecalis [6]: antimicrobial effect | Viability of fecal microorganisms vs scrambled peptide treated samples ([7]; fecal samples from transgenic 5xFAD mice): no such toxic effect | Viability of fecal microorganisms vs scrambled peptide treated samples ([7]; fecal samples from wild type mice): significantly reduce viability
